Results as given in PubChem BioAssay AID1259407 (Chemical Carcinogenesis Research Information System (CCRIS), 2018).
Active and inactive are the calls of the source. How the calls were made is not given here.

Tested on: CCRIS mutagenicity, Ames/micronucleus/aberration tests
Assay: CCRIS mutagenicity studies
[1] = Test System: AMES SALMONELLA TYPHIMURIUM, Strain/Indicator: TA98, Metabolic Activation: NONE, Method: STANDARD PLATE
[2] = Test System: AMES SALMONELLA TYPHIMURIUM, Strain/Indicator: TA98, Metabolic Activation: RAT, LIVER, S-9, AROCLOR 1254, Method: STANDARD PLATE
[3] = Test System: AMES SALMONELLA TYPHIMURIUM, Strain/Indicator: TA100, Metabolic Activation: NONE, Method: STANDARD PLATE
[4] = Test System: AMES SALMONELLA TYPHIMURIUM, Strain/Indicator: TA100, Metabolic Activation: RAT, LIVER, S-9, AROCLOR 1254, Method: STANDARD PLATE
[5] = Test System: Ames Salmonella typhimurium, Strain/Indicator: TA102, Metabolic Activation: None, Method: Preincubation

Measured: mutagenic call

CCN(CC[N+](C)(C)C)c1ccc(N=Nc2ccc([N+](=O)[O-])cc2Cl)cc1
inactive: Test System: Ames Salmonella typhimurium, Strain/Indicator: TA100, Metabolic Activation: None, Method: Preincubation inactive; negative | [5] inactive; negative | Test System: Ames Salmonella typhimurium, Strain/Indicator: TA1535, Metabolic Activation: None, Method: Preincubation inactive; negative | Test System: MOUSE LYMPHOMA, Strain/Indicator: L5178Y (TK+/TK-), Metabolic Activation: NONE, Method: SUSPENSION/PLATE inactive; negative. reevaluation of results: negative
active: Test System: AMES SALMONELLA TYPHIMURIUM, Strain/Indicator: TA98, Metabolic Activation: HAMSTER, LIVER, S-9, AROCLOR 1254, Method: STANDARD PLATE active; positive | Test System: AMES SALMONELLA TYPHIMURIUM, Strain/Indicator: TA98, Metabolic Activation: HAMSTER, LIVER, S-9, Method: PREINCUBATION (PRIVAL METHOD) active; positive | [1] active; positive | [2] active; positive | Test System: AMES SALMONELLA TYPHIMURIUM, Strain/Indicator: TA100, Metabolic Activation: HAMSTER, LIVER, S-9, AROCLOR 1254, Method: STANDARD PLATE active; positive | [3] active; positive | [4] active; positive | Test System: AMES SALMONELLA TYPHIMURIUM, Strain/Indicator: TA1537, Metabolic Activation: NONE, Method: STANDARD PLATE active; positive | Test System: AMES SALMONELLA TYPHIMURIUM, Strain/Indicator: TA1538, Metabolic Activation: HAMSTER, LIVER, S-9, AROCLOR 1254, Method: STANDARD PLATE active; positive | Test System: AMES SALMONELLA TYPHIMURIUM, Strain/Indicator: TA1538, Metabolic Activation: NONE, Method: STANDARD PLATE active; positive | Test System: AMES SALMONELLA TYPHIMURIUM, Strain/Indicator: TA1538, Metabolic Activation: RAT, LIVER, S-9, AROCLOR 1254, Method: STANDARD PLATE active; positive | Test System: Ames Salmonella typhimurium, Strain/Indicator: TA98, Metabolic Activation: None, Method: Preincubation active; positive | Test System: MOUSE LYMPHOMA, Strain/Indicator: L5178Y (TK+/TK-), Metabolic Activation: RAT, LIVER, S-9, AROCLOR 1254, Method: SUSPENSION/PLATE active; positive. reevaluation of results: positive

FC(F)(F)CC(F)(F)F
inactive: Test System: AMES SALMONELLA TYPHIMURIUM, Strain/Indicator: TA97, Metabolic Activation: NONE, Method: CLOSED GLASS VESSEL inactive; negative | Test System: AMES SALMONELLA TYPHIMURIUM, Strain/Indicator: TA97, Metabolic Activation: RAT LIVER S-9, AROCLOR 1254, Method: CLOSED GLASS VESSEL inactive; negative | Test System: AMES SALMONELLA TYPHIMURIUM, Strain/Indicator: TA98, Metabolic Activation: NONE, Method: CLOSED GLASS VESSEL inactive; negative | Test System: AMES SALMONELLA TYPHIMURIUM, Strain/Indicator: TA98, Metabolic Activation: RAT LIVER S-9, AROCLOR 1254, Method: CLOSED GLASS VESSEL inactive; negative | Test System: AMES SALMONELLA TYPHIMURIUM, Strain/Indicator: TA100, Metabolic Activation: NONE, Method: CLOSED GLASS VESSEL inactive; negative | Test System: AMES SALMONELLA TYPHIMURIUM, Strain/Indicator: TA100, Metabolic Activation: RAT LIVER S-9, AROCLOR 1254, Method: CLOSED GLASS VESSEL inactive; negative | Test System: AMES SALMONELLA TYPHIMURIUM, Strain/Indicator: TA1535, Metabolic Activation: NONE, Method: CLOSED GLASS VESSEL inactive; negative | Test System: AMES SALMONELLA TYPHIMURIUM, Strain/Indicator: TA1535, Metabolic Activation: RAT LIVER S-9, AROCLOR 1254, Method: CLOSED GLASS VESSEL inactive; negative | Test System: ESCHERICHIA COLI, Strain/Indicator: WP2 UVR A, Metabolic Activation: NONE, Method: CLOSED GLASS VESSEL inactive; negative | Test System: ESCHERICHIA COLI, Strain/Indicator: WP2 UVR A, Metabolic Activation: RAT LIVER S-9, AROCLOR 1254, Method: CLOSED GLASS VESSEL inactive; negative

O=C1c2c(O)cc(O)cc2O[C@H](c2ccc(O)c(O)c2)[C@H]1O
inactive: Test System: Ames Salmonella typhimurium, Strain/Indicator: TA102, Metabolic Activation: Fe ++ (1 uM) with NADPH generating system, Method: Preincubation inactive; negative | [5] inactive; negative | Test System: Ames Salmonella typhimurium, Strain/Indicator: TA102, Metabolic Activation: Rat, Liver, S-9, Aroclor 1254, Method: Preincubation inactive; negative | Test System: Ames Salmonella typhimurium, Strain/Indicator: TA102, Metabolic Activation: Rat, Liver, S-9, Aroclor 1254 in 0.154 M KCl, Method: Preincubation inactive; negative | Test System: E. coli, Strain/Indicator: WP2 uvrA, Metabolic Activation: Fe ++ (1 uM) with NADPH generating system, Method: Preincubation inactive; negative. authors say results are positive at 100 and 250 um but results are bar | Test System: E. coli, Strain/Indicator: WP2 uvrA, Metabolic Activation: None, Method: Preincubation inactive; negative | Test System: E. coli, Strain/Indicator: WP2 uvrA, Metabolic Activation: Rat, Liver, S-9, Aroclor 1254, Method: Preincubation inactive; negative

CCNc1nc(Cl)nc(NCC)n1
inactive: Test System: AMES SALMONELLA TYPHIMURIUM, Strain/Indicator: TA97, Metabolic Activation: NONE, Method: STANDARD PLATE inactive; negative | Test System: AMES SALMONELLA TYPHIMURIUM, Strain/Indicator: TA97, Metabolic Activation: RAT, LIVER, S-9, AROCLOR 1254, Method: STANDARD PLATE inactive; negative | [1] inactive; negative | [2] inactive; negative | [3] inactive; negative | [4] inactive; negative | Test System: AMES SALMONELLA TYPHIMURIUM, Strain/Indicator: TA102, Metabolic Activation: NONE, Method: STANDARD PLATE inactive; negative | Test System: AMES SALMONELLA TYPHIMURIUM, Strain/Indicator: TA102, Metabolic Activation: RAT, LIVER, S-9, AROCLOR 1254, Method: STANDARD PLATE inactive; negative

CC(C)CN(N=O)/C(N)=N/[N+](=O)[O-]
active: Test System: AMES SALMONELLA TYPHIMURIUM, Strain/Indicator: TA100, Metabolic Activation: RAT, LIVER, S-9, KC500 OR PHENOBARBITAL, Method: LIQUID SUSPENSION active; positive | Test System: AMES SALMONELLA TYPHIMURIUM, Strain/Indicator: TA1535, Metabolic Activation: NONE, Method: STANDARD PLATE active; positive | Test System: AMES SALMONELLA TYPHIMURIUM, Strain/Indicator: TA1535, Metabolic Activation: RAT, LIVER, S-9, KC500 OR PHENOBARBITAL, Method: LIQUID SUSPENSION active; positive

C[N+](C)(C)Cc1ccccc1
inactive: Test System: AMES SALMONELLA TYPHIMURIUM, Strain/Indicator: TA97, Metabolic Activation: HAMSTER, LIVER, S-9, AROCLOR 1254 (10 OR 30%), Method: PREINCUBATION inactive; negative | Test System: AMES SALMONELLA TYPHIMURIUM, Strain/Indicator: TA97, Metabolic Activation: NONE, Method: PREINCUBATION inactive; negative | Test System: AMES SALMONELLA TYPHIMURIUM, Strain/Indicator: TA97, Metabolic Activation: RAT, LIVER, S-9, AROCLOR 1254 (10 OR 30%), Method: PREINCUBATION inactive; negative | Test System: AMES SALMONELLA TYPHIMURIUM, Strain/Indicator: TA98, Metabolic Activation: HAMSTER, LIVER, S-9, AROCLOR 1254 (10 OR 30%), Method: PREINCUBATION inactive; negative | Test System: AMES SALMONELLA TYPHIMURIUM, Strain/Indicator: TA98, Metabolic Activation: NONE, Method: PREINCUBATION inactive; negative | Test System: AMES SALMONELLA TYPHIMURIUM, Strain/Indicator: TA98, Metabolic Activation: RAT, LIVER, S-9, AROCLOR 1254 (10 OR 30%), Method: PREINCUBATION inactive; negative | Test System: AMES SALMONELLA TYPHIMURIUM, Strain/Indicator: TA100, Metabolic Activation: HAMSTER, LIVER, S-9, AROCLOR 1254 (10 OR 30%), Method: PREINCUBATION inactive; negative | Test System: AMES SALMONELLA TYPHIMURIUM, Strain/Indicator: TA100, Metabolic Activation: NONE, Method: PREINCUBATION inactive; negative | Test System: AMES SALMONELLA TYPHIMURIUM, Strain/Indicator: TA100, Metabolic Activation: RAT, LIVER, S-9, AROCLOR 1254 (10 OR 30%), Method: PREINCUBATION inactive; negative | Test System: AMES SALMONELLA TYPHIMURIUM, Strain/Indicator: TA1535, Metabolic Activation: HAMSTER, LIVER, S-9, AROCLOR 1254 (10 OR 30%), Method: PREINCUBATION inactive; negative | Test System: AMES SALMONELLA TYPHIMURIUM, Strain/Indicator: TA1535, Metabolic Activation: NONE, Method: PREINCUBATION inactive; negative | Test System: AMES SALMONELLA TYPHIMURIUM, Strain/Indicator: TA1535, Metabolic Activation: RAT, LIVER, S-9, AROCLOR 1254 (10 OR 30%), Method: PREINCUBATION inactive; negative

O=[N+]([O-])c1ccc(OC[C@@H]2CO2)cc1
active: [3] active; positive
